Columns and labels:
[1] = test system: T1, PDE-1; experiment: bis(p-nitrophenyl) substrate hydrolysis, […] nm; format: biochemical; conditions: 0.33 mM bis(p-nitrophenyl) substrate, Mg acetate, Tris-HCl pH 8.8, 37 °C
T1 construct: gene phosphodiesterase I; substrate bis(p-nitrophenyl) phosphate type, pH 8.8 and Mg acetate fit the usual snake venom phosphodiesterase I, not the docking model human PDE1B (5W6E)

[2] = target: T2, mushroom tyrosine [tyrosinase]; experiment: L-DOPA oxidation, absorbance […] nm; format: biochemical; conditions: L-DOPA (printed L-DOP) substrate, phosphate buffer, 37 °C
T2 construct: gene PPO1; docking model 1WX2 is another species (Streptomyces)

Structure (SMILES)	IC50 ([1]; chelator used as standard) [µM]	IC50 [2] [µM]	IC50 [1] [µM]
O=C(O)CN(CCN(CC(=O)O)CC(=O)O)CC(=O)O [EDTA]	264.1 ± 1.09		
O=c1cc(CO)occ1O [Kojic acid]		44 ± 1.1	
CC1(C)C=Cc2c(cc3oc(-c4ccc(O)cc4)cc(=O)c3c2O)O1 [compound 1, carpachromene]		40.5 ± 2	209.4 ± 1.87
